Data: ChEMBL document CHEMBL3244157, “Synthesis and antiinflammatory evaluation of substituted isophthalonitriles, trimesonitriles, benzonitriles, and terephthalonitriles” (J Med Chem, 1978)

Key:
Rattus norvegicus [1] = experiment: Antiinflammatory activity in Long Evans rat assessed as reduction of carrageenan-induced pedal edema at 200 mg/kg, po administered 1 hr prior to carrageenan challenge measured after 3 hrs relative to control; type: functional; parameters: scale not given: the % may be the effect or the level left
[2] = Toxicity in mouse assessed as overt effects; type: organism-based; settings: in vivo
Rattus norvegicus [3] = experiment: Antiinflammatory activity in Long Evans rat assessed as reduction of carrageenan-induced pedal edema at 50 mg/kg, po administered 1 hr prior to carrageenan challenge measured after 3 hrs relative to control; type: functional; parameters: scale not given: the % may be the effect or the level left
Rattus norvegicus [4] = experiment: Antiinflammatory activity in Long Evans rat assessed as reduction of carrageenan-induced pedal edema at 100 mg/kg, po administered 1 hr prior to carrageenan challenge measured after 3 hrs relative to control; type: functional; parameters: scale not given: the % may be the effect or the level left
Rattus norvegicus [5] = experiment: Antiinflammatory activity in Long Evans rat assessed as reduction of carrageenan-induced pedal edema at 150 mg/kg, po administered 1 hr prior to carrageenan challenge measured after 3 hrs relative to control; type: functional; parameters: scale not given: the % may be the effect or the level left
Rattus norvegicus [6] = experiment: Antiinflammatory activity in Long Evans rat assessed as reduction of carrageenan-induced pedal edema at 40 mg/kg, po administered 1 hr prior to carrageenan challenge measured after 3 hrs relative to control; type: functional; parameters: scale not given: the % may be the effect or the level left
Rattus norvegicus [7] = experiment: Antiinflammatory activity in Long Evans rat assessed as reduction of carrageenan-induced pedal edema at 15 mg/kg, po administered 1 hr prior to carrageenan challenge measured after 3 hrs relative to control; type: functional; parameters: scale not given: the % may be the effect or the level left

SMILES | Activity (Rattus norvegicus [1]) [%] | LD50 [2] [mg/kg] | further results
Cc1cccc(C#N)c1 | 20 | > 300 | 
N#Cc1c(N)c(Cl)c(Cl)c(C#N)c1Cl | 25 | > 300 | 
N#Cc1cccc(C#N)c1 | 35 | 178 | 
N#Cc1ccc(Cl)cc1 | 30 | > 300 | 
N#Cc1cc(C#N)c(F)cc1F |  | 56 | Activity (Rattus norvegicus [3]): 59%
N#Cc1c(Cl)c(C#N)c(Nc2ccc(Br)cc2)c(C#N)c1Cl | 14 | 300 | 
N#Cc1c(Cl)c(C#N)c(Nc2ccc(N)cc2)c(C#N)c1Cl |  | 133 | Activity (Rattus norvegicus [4]): 14%
N#Cc1c(O)c(Cl)c(Cl)c(C#N)c1Cl |  | 178 | Activity (Rattus norvegicus [5]): 28%
CNc1c(Cl)c(Cl)c(C#N)c(Cl)c1C#N | 22 | > 300 | 
CCCCNc1c(Cl)c(Cl)c(C#N)c(Cl)c1C#N | 17 | > 300 | 
C=CCNc1c(Cl)c(Cl)c(C#N)c(Cl)c1C#N | 17 | > 300 | 
CCCCC(CC)CNc1c(Cl)c(Cl)c(C#N)c(Cl)c1C#N (stereo unspecified) | 0 | > 300 | 
COc1c(Cl)c(Cl)c(C#N)c(Cl)c1C#N |  | 178 | Activity (Rattus norvegicus [4]): 0%
CCCOc1c(Cl)c(Cl)c(C#N)c(Cl)c1C#N |  | 178 | Activity (Rattus norvegicus [4]): 8%
CCCCOc1c(Cl)c(Cl)c(C#N)c(Cl)c1C#N |  | 178 | Activity (Rattus norvegicus [4]): 8%
CC(=O)Oc1c(Cl)c(Cl)c(C#N)c(Cl)c1C#N | 25 | 237 | 
CCC(=O)Oc1c(Cl)c(Cl)c(C#N)c(Cl)c1C#N | 11 | 178 | 
CCCC(=O)Oc1c(Cl)c(Cl)c(C#N)c(Cl)c1C#N |  | 178 | Activity (Rattus norvegicus [5]): 14%
CC(C)C(=O)Oc1c(Cl)c(Cl)c(C#N)c(Cl)c1C#N | 0 | 237 | 
CC(C)CCC(=O)Oc1c(Cl)c(Cl)c(C#N)c(Cl)c1C#N |  | 56 | Activity (Rattus norvegicus [3]): 0%
CCCCCC(=O)Oc1c(Cl)c(Cl)c(C#N)c(Cl)c1C#N | 11 | > 300 | 
CCCCC(CC)C(=O)Oc1c(Cl)c(Cl)c(C#N)c(Cl)c1C#N (stereo unspecified) | 20 | > 300 | 
CCCCCCCC(=O)Oc1c(Cl)c(Cl)c(C#N)c(Cl)c1C#N |  | 178 | Activity (Rattus norvegicus [5]): 22%

SMILES | Activity (Rattus norvegicus [1]) [%] | LD50 [2] [mg/kg] | further results
N#Cc1c(Cl)c(Cl)c(OC(=O)c2ccccc2)c(C#N)c1Cl | 11 | > 300 | 
CNC(=O)Oc1c(Cl)c(Cl)c(C#N)c(Cl)c1C#N |  | 178 | Activity (Rattus norvegicus [4]): 20%
CCCCNC(=O)Oc1c(Cl)c(Cl)c(C#N)c(Cl)c1C#N |  | 178 | Activity (Rattus norvegicus [4]): 3%
N#Cc1ccc(Br)c(C#N)c1 |  | 178 | Activity (Rattus norvegicus [4]): 3%
N#Cc1cccc(C#N)c1Cl | 20 | 300 | 
N#Cc1ccc(F)c(C#N)c1 |  | 178 | Activity (Rattus norvegicus [5]): 25%
N#Cc1cc(C#N)c(Cl)cc1Cl |  | 178 | Activity (Rattus norvegicus [5]): 5%
N#Cc1c(Cl)cc(Cl)c(C#N)c1Cl | 8 | 100 | 
N#Cc1c(Cl)c(C#N)c(Nc2cccc(Cl)c2)c(C#N)c1Cl |  | 178 | Activity (Rattus norvegicus [6]): 0%
N#Cc1c(Cl)c(C#N)c(Nc2ccc(Cl)cc2)c(C#N)c1Cl |  | 178 | Activity (Rattus norvegicus [5]): 1%
N#Cc1c(Cl)c(C#N)c(Nc2ccccc2O)c(C#N)c1Cl |  | 24 | Activity (Rattus norvegicus [7]): 17%
N#Cc1c(Cl)c(C#N)c(Nc2cccc(F)c2)c(C#N)c1Cl |  | 56 | Activity (Rattus norvegicus [6]): 0%
N#Cc1c(Cl)c(C#N)c(Nc2ccc(F)cc2F)c(C#N)c1Cl |  | 56 | Activity (Rattus norvegicus [6]): 12%
N#Cc1c(Cl)c(C#N)c(Nc2cccc(C(F)(F)F)c2)c(C#N)c1Cl | 29 | 237 | 
N#Cc1c(Cl)c(C#N)c(Nc2ccc(Cl)c(Cl)c2)c(C#N)c1Cl |  | 56 | 
COc1ccc(Nc2c(C#N)c(Cl)c(C#N)c(Cl)c2C#N)cc1OC |  | 178 | Activity (Rattus norvegicus [5]): 13%
Cc1cccc(Nc2c(C#N)c(Cl)c(C#N)c(Cl)c2C#N)c1C |  | 75 | Activity (Rattus norvegicus [3]): 22%
Cc1ccc(Nc2c(C#N)c(Cl)c(C#N)c(Cl)c2C#N)c(C)c1 |  | 56 | Activity (Rattus norvegicus [6]): 13%
CNc1c(C#N)c(Cl)c(C#N)c(NC)c1C#N | 20 | 300 | 
CCNc1c(C#N)c(Cl)c(C#N)c(NCC)c1C#N | 11 | 300 | 
CC(C)Nc1c(C#N)c(Cl)c(C#N)c(NC(C)C)c1C#N | 5 | 300 | 
N#Cc1cc(C#N)cc(C#N)c1 | 32 | 300 | 
Cc1c(C#N)c(C)c(C#N)c(C)c1C#N |  | 40 | Activity (Rattus norvegicus [3]): 57%

SMILES | Activity (Rattus norvegicus [1]) [%] | LD50 [2] [mg/kg] | further results
CCC(=O)Oc1c(Cl)c(Cl)c(C#N)c(Cl)c1Cl | 0 | > 300 | 
CCCC(=O)Oc1c(Cl)c(Cl)c(C#N)c(Cl)c1Cl | 15 | > 300 | 
CC(C)C(=O)Oc1c(Cl)c(Cl)c(C#N)c(Cl)c1Cl | 0 | > 300 | 
CCCCC(=O)Oc1c(Cl)c(Cl)c(C#N)c(Cl)c1Cl | 2 | > 300 | 
CCCCCC(=O)Oc1c(Cl)c(Cl)c(C#N)c(Cl)c1Cl | 0 | > 300 | 
CCC(CC)C(=O)Oc1c(Cl)c(Cl)c(C#N)c(Cl)c1Cl | 11 | > 300 | 
CCCCCCCC(=O)Oc1c(Cl)c(Cl)c(C#N)c(Cl)c1Cl | 0 | > 300 | 
CCCCC(CC)C(=O)Oc1c(Cl)c(Cl)c(C#N)c(Cl)c1Cl (stereo unspecified) | 15 | > 300 | 
CCCCCCCCCCCC(=O)Oc1c(Cl)c(Cl)c(C#N)c(Cl)c1Cl | 11 | > 300 | 
N#Cc1c(Cl)c(Cl)c(OC(=O)C(Cl)(Cl)Cl)c(Cl)c1Cl | 17 | > 300 | 
N#Cc1c(Cl)c(Cl)c(OC(=O)Cc2ccccc2)c(Cl)c1Cl | 0 | > 300 | 
N#Cc1c(Cl)c(Cl)c(OC(=O)c2ccccc2Cl)c(Cl)c1Cl | 0 | > 300 | 
N#Cc1c(Cl)c(Cl)c(OC(=O)c2ccc(Cl)c(Cl)c2)c(Cl)c1Cl | 3 | > 300 | 
CC(C)S(=O)(=O)c1c(Cl)c(Cl)c(C#N)c(Cl)c1Cl | 11 | > 300 | 
CCCCS(=O)(=O)c1c(Cl)c(Cl)c(C#N)c(Cl)c1Cl | 12 | 237 | 
CCCCCS(=O)(=O)c1c(Cl)c(Cl)c(C#N)c(Cl)c1Cl | 5 | 237 | 
CCCCCCS(=O)(=O)c1c(Cl)c(Cl)c(C#N)c(Cl)c1Cl |  | 178 | Activity (Rattus norvegicus [5]): 2%
CCCCCCCCCCS(=O)(=O)c1c(Cl)c(Cl)c(C#N)c(Cl)c1Cl | 0 | > 300 | 
N#CCCS(=O)(=O)c1c(Cl)c(Cl)c(C#N)c(Cl)c1Cl |  | 56 | Activity (Rattus norvegicus [6]): 5%
N#Cc1c(Cl)c(Cl)c(S(=O)(=O)CCCl)c(Cl)c1Cl | 0 | > 300 | 
N#Cc1c(Cl)c(Cl)c(S(=O)(=O)CCCCCl)c(Cl)c1Cl | 15 | > 300 | 
CCOCCS(=O)(=O)c1c(Cl)c(Cl)c(C#N)c(Cl)c1Cl | 23 | 237 | 
N#Cc1c(Cl)c(Cl)c(S(=O)(=O)CCCc2ccccc2)c(Cl)c1Cl | 18 | 300 | 

SMILES | Activity (Rattus norvegicus [1]) [%] | LD50 [2] [mg/kg] | further results
N#Cc1ccc(Br)cc1 |  | 237 | Activity (Rattus norvegicus [5]): 75%
N#Cc1ccccc1Cl | 26 | > 300 | 
N#Cc1ccccc1Br | 19 | > 300 | 
N#Cc1ccc(F)cc1 | 17 | > 300 | 
Cc1ccc(C#N)cc1C | 25 | > 300 | 
CNc1c(F)c(C#N)c(F)c(F)c1C#N |  | 56 | Activity (Rattus norvegicus [6]): 17%
CCNc1c(F)c(C#N)c(F)c(F)c1C#N | 19 | 237 | 
CCCCNc1c(F)c(C#N)c(F)c(F)c1C#N | 14 | > 300 | 
CCCCCCNc1c(F)c(C#N)c(F)c(F)c1C#N | 11 | > 300 | 
CCN(CC)c1c(F)c(C#N)c(F)c(F)c1C#N | 0 | > 300 | 
CCCN(CCC)c1c(F)c(C#N)c(F)c(F)c1C#N | 22 | > 300 | 
N#Cc1c(F)c(F)c(C#N)c(Nc2ccc(O)cc2)c1F | 10 | > 300 | 
N#Cc1c(Cl)c(Cl)c(C#N)c(Cl)c1Cl | 13 | > 300 | 
N#Cc1c(F)c(F)c(C#N)c(F)c1F |  | 56 | Activity (Rattus norvegicus [3]): 54%
N#Cc1ccc(C#N)cc1 | 27 | > 300 | 
N#Cc1ccc(C#N)c(Cl)c1 | 46 | > 300 | 
N#Cc1ccc(C#N)c(F)c1 | 49 | > 300 | 
N#Cc1cc(Cl)c(C#N)cc1Cl | 22 | > 300 | 
N#Cc1cc(F)c(C#N)cc1F | 32 | 56 | 
N#Cc1cc(Cl)c(C#N)cc1F | 22 | > 300 | 
N#Cc1c(F)c(F)c(C#N)c(Cl)c1F |  | 40 | Activity (Rattus norvegicus [6]): 86%
CCCCC1C(=O)N(c2ccccc2)N(c2ccccc2)C1=O [PHENYLBUTAZONE] |  | > 300 | Activity (Rattus norvegicus [4]): 43.8%
